Tests used:
[1] = molecular target: T1, CXCR-4 (Homo sapiens, UniProt P61073); test: Inhibition of SDF-1 induced intracellular [Ca2+]i mobilization in THP-1 cells; format: cell-based; set-up: endogenous in cells; host or cells: THP-1 cells; settings: Fura-2,AM loaded THP-1 cells; incubated 60 min prior to induction by 10 nM SDF-1
Experimental: A rapid, transient rise in the free cytosolic Ca^2+ concentration ([Ca^2+]i) is one of the events associated with the Chemokine mediated induction of the associated receptors and is assumed to be involved in many of the subsequent cellular reactions. Both Ca^2+ release from intracellular stores and Ca^2+ influx from the extracellular space contribute to the rise in [Ca^2+]i. […] Fura-2,AM loaded THP-1 cells were incubated with CTCM226 for 60 min prior to induction of [Ca^2+]i mobilization by 10 nM SDF-1. Results illustrate the effect of CTCM226 (1) on SDF-1 induced Ca^2+ mobilization.
In accordance with this aspect of the invention, the naphthoic acid derivative, such as compound 1 or corresponding salts may be used for the treatment of a wide range of inflammatory diseases such as gout, arthritis, osteoarthritis, rheumatoid arthritis, and ARDS.

[2] = molecular target: T1, CXCR-4; test: Inhibition of binding of I125 labeled SDF-1 to CXCR-4 receptor; settings: I125 labeled SDF-1 as competitor ligand
Experimental: This example discloses the ability of compounds of the invention, such as naphthoic acid derivatives, such as CTCM226 (1), to inhibit binding of SDF-1 to CXCR-4 receptor. The binding studies were conducted using I^125 labeled SDF-1 as competitor ligand.

T1 sequence (P61073 whole entry): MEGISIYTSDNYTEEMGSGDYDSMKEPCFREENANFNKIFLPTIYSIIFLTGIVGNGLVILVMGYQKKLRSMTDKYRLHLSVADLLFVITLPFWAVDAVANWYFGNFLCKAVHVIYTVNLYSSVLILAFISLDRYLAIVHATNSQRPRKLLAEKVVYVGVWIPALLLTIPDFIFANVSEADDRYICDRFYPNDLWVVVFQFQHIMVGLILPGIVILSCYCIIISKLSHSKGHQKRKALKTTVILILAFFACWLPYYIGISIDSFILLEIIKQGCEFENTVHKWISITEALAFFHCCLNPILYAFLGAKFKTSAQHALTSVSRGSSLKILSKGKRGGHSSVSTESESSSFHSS

IC50 [1]: 0.6 µM | IC50 [2]: 150 µM
SMILES: O=C(O)c1cc2ccccc2cc1O [Compound 1, 3-Hydroxy-2-naphthoic acid]
